Legend:
[1] = Inhibition of leukotriene synthesis was assessed from inhibitory activity against human PMN.; format: functional
Rattus norvegicus [2] = species on record: Rattus norvegicus; assay: The effective dose was measured by using rat pleurisy assay.; format: functional
[3] = Compound was tested for bioavailability in rats; format: ADME, organism-based; details: rat, in vivo
Rattus norvegicus [4] = species on record: Rattus norvegicus; assay: The effective dose was measured in antigen-induced dyspnea in inbred hyperreactive rats.; format: functional
[5] = Percentage blockade of ascaris-induced bronchoconstriction by the compound was determined at a dose of 1 mg/kg in conscious squirrel monkey; format: functional
[6] = Compound was tested for bioavailability in squirrel monkey; format: ADME, organism-based, Saimiri sciureus; details: in vivo

Row | Structure (SMILES) | IC50 [1] [nM] | other results
1 | CCCCCC(O)c1cccc(OCc2ccc3ccccc3n2)c1 (stereo unspecified) [REV-5901] | 1800 | 
2 | OC(CCCc1ccccc1)c1ccc(OCc2ccc3ccccc3n2)cc1 (stereo unspecified) | 30 | 
3 | O=C(O)CO/N=C(\CCCc1ccccc1)c1ccc(OCc2ccc3ccccc3n2)cc1 | 80 | 
4 | O=C(O)CSC(CCCc1ccccc1)c1ccc(OCc2ccc3ccccc3n2)cc1 (stereo unspecified) [AZD-4769] | 3 | 
5 | O=C(O)CSC(CCCc1ccc(Cl)cc1)c1ccc(OCc2ccc3ccccc3n2)cc1 (stereo unspecified) | 7 | ED50 (Rattus norvegicus [2]): 1.6 mg/kg; bioavailability [3]: 100%; ED50 (Rattus norvegicus [4]): 0.035 mg/kg; Blockade [5]: 80%; bioavailability [6]: 93%
6 | CCCCCC(O)c1ccc(OCc2ccc3ccccc3n2)cc1 (stereo unspecified) | 90 | 

Source: ChEMBL document CHEMBL1125962, “A new class of leukotriene biosynthesis inhibitors: The development of ((4-(4-chlorophenyl)-1-(4-(2-quinolinylmethoxy)phenyl)butyl)thio)acetic acid, L-674,636” (Bioorg Med Chem Lett, 1991)
